Data taken from US12318399B2 (priority 2022, dated 2025).

Key:
[1] = test system: endometrial cancer organoids; assay: Patient-derived endometrial cancer organoid cell viability (CellTiter-Glo); type: cell-based, human; details: for Flavonoids screening on endometrial cancer cell organoids, Average: viability normalized to vehicle = 100; for cell viability: FIG. 17B; for efficacy in combination with FSHE: combined with IC50 FSHE, FIG. 18; for Endometrial Cancer Average: vehicle = 100; for cell viability compared to the IC50 value: 75 μM in combination with BSHE at an IC50, FIG. 17A
Protocol: (§1) Development of patient derived organoids: The patient derived organoids were created as follows: the patient's tissue sample was collected after surgery and bathed in Hank's Balanced Salt Solution (HBSS) (Hyclone, SH30031.02) with 1% Pencillin/Streptomycin (P/S) (Life Technologies, 15070-063) on ice. Then the sample was washed three times with Dulbecco's phosphate-buffered saline (DPBS) and 1% P/S on a shaker (70 rpm) for 15 minutes each. The tissue was then transferred into a presterilized cell-culture hood to mince it finely with a sterile blade. All minced parts were then digested in an enzyme named Accumax (Innovative Cell Technologies Inc., AM105-500) for 2.5 hours at room temperature. After 2.5-hour incubation, the whole digested tissue mince was transferred in another enzyme, TrypLE express, (Gibco, 12604-021) for another 45 minutes in a 37° C. water bath. During this time the solution was continuously agitated in every 5 minutes interval. After 45 minutes of incubation, the solutions were passed through 70 μm filter on a 50 mL falcon tube. The filter was removed, and the flowthrough with the cells was collected in 5% FBS AD+++ medium (comprising 1% TS, 2% B27, 1% N2, 25% WRN, hegf 50 ng/ml, hfgf 10-100 ng/ml, Nicotinamide 1 mM, N-acetyl cysteine 1.25 mM, Primocin 0.2%, Estrogen 2 nm, A8301 0.5 μM, and Y27632). This cell suspension was centrifuged at 1000 rpm for 5 minutes at room temperature to get the cell pellet for counting. Upon checking under hemocytometer cell number was calculated and processed for organoid culture. After checking under a microscope if we found RBC contamination in the final cell suspension, then we used Red Blood Cell Lysis Buffer (Roche Diagnostics, 11814389001) to get rid of the excess RBC. Human patient cells from endometrial cancer were grown and maintained in a humidified chamber at 37° C. with 5% CO2.
(§2) To culture patient-derived organoids, 2-3×10^3 cells were plated in a prewarmed (37° C.) 96-well plate in […] of Matrigel (5% FBS AD+++ medium) per well. Individual patient cell organoid was cultured separately in different plates. Individual patient cells were handled separately to reduce the chance of cross-contamination. After mixing cells with Matrigel, […] droplets were placed in wells and put in a 37° C. incubator with 5% CO2 for 30 minutes. Upon solidification of the Matrigel droplet with cells inside, the plate was placed inside a sterile hood and immersed the Matrigel droplet in 200 μL of organoid growth media. Cells were allowed to grow into mature organoids for 14 days. […] All treatments were done in triplicate, including vehicle-only controls (Dimethyl sulfoxide in culture medium at the highest concentration used for drug treatments).
(§3) Note: IC50 is the 50% inhibitory concentration which is conventionally used to determine drug potency with cell-based cytotoxicity tests. Similarly, all of the antioxidants were tested under the same protocol.
(§4) To assess the cell viability in organoids after treatments, CellTiter-Glo® Luminescent Assay (Promega #G7572) was used. In brief, on day 14 of organoid culture, the matrigel droplet in each well with organoid inside was immersed in 100 μL of fresh growth media and 100 μL of CellTiter-Glo® reagent following the manufacturer's guideline. Blank wells containing only media and CellTiter-Glo® reagent (no cells) were also included in each plate. Then the plates were put on a shaker at 110 RPM at room temperature for […] minutes to induce cell lysis, followed by 25 minutes at room temperature to stabilize the luminescent signal. Each step after adding the CellTiter-Glo® reagent was performed in the dark. Luminescence was measured on a FLUOstar OPTIMA plate reader (BMG Lab technologies, Offenburg, Germany). Analysis was performed by normalizing treatment values to the vehicle control and plotting them as a percentage of the vehicle control.

[2] = oral formulations; cited from earlier work
ovarian cancer organoids = assay: Patient-derived ovarian cancer organoid cell viability; type: cell-based, human; details: vehicle = 100
Protocol: as §1
For the Ascites samples, we centrifuged the ascites fluid at 1000 rpm for 10 minutes at room temperature to get the cell suspension. The cell suspension was then treated with Red Blood Cell Lysis Buffer (Roche Diagnostics, 11814389001) to remove the RBC from the final cell suspension. Once samples were created, they were ready for testing, which included treating the organoids with cannabis extract. Additional cells were cultured in the same manner as above.
as §2, §3
To assess the cell viability in organoids after treatments, CellTiter-Glo® Luminescent Assay (Promega #G7572) was used. In brief, on day 14 of organoid culture, the matrigel droplet in each well with organoid inside was immersed in 100 μL of fresh growth media and 100 μL of CellTiter-Glo® reagent following the manufacturer's guideline. Blank wells containing only media and CellTiter-Glo® reagent (no cells) were also included in each plate. […]

endometriosis organoids = assay: Endometriosis organoid cell viability; type: cell-based, human; set-up: key: % of vehicle control; details: vehicle = 100
Protocol: as §2, §3
as §4, with “control. Drug IC50 values were determined by inhibitor vs normalized response-variable slope using least squares regression in Graphpad Prism 9.” for “control.”

O=c1c(O)c(-c2ccccc2)oc2ccccc12 [3-hydroxyflavone]
Flavonoids screening on endometrial cancer cell organoids, Average ([1]; 10 μM, monotherapy): 61.62 | Flavonoids screening on endometrial cancer cell organoids, Average ([1]; 20 μM, monotherapy): 48.26 | Flavonoids screening on endometrial cancer cell organoids, Average ([1]; 30 μM, monotherapy): 51.28 | Flavonoids screening on endometrial cancer cell organoids, Average ([1]; 40 μM, monotherapy): 41.00 | Flavonoids screening on endometrial cancer cell organoids, Average ([1]; 50 μM, monotherapy): 37.88 | Flavonoids screening on endometrial cancer cell organoids, Average ([1]; 60 μM, monotherapy): 35.89 | Flavonoids screening on endometrial cancer cell organoids, Average ([1]; 80 μM, monotherapy): 34.31 | Flavonoids screening on endometrial cancer cell organoids, Average ([1]; 100 μM, monotherapy): 34.65

O=c1c(O)c(-c2ccccc2)oc2cc(O)cc(O)c12 [Galangin]
Flavonoids screening on endometrial cancer cell organoids, Average ([1]; 10 μM, monotherapy): 98.74 | Flavonoids screening on endometrial cancer cell organoids, Average ([1]; 20 μM, monotherapy): 98.58 | Flavonoids screening on endometrial cancer cell organoids, Average ([1]; 30 μM, monotherapy): 96.96 | Flavonoids screening on endometrial cancer cell organoids, Average ([1]; 40 μM, monotherapy): 69.20 | Flavonoids screening on endometrial cancer cell organoids, Average ([1]; 50 μM, monotherapy): 49.62 | Flavonoids screening on endometrial cancer cell organoids, Average ([1]; 60 μM, monotherapy): 33.55 | Flavonoids screening on endometrial cancer cell organoids, Average ([1]; 80 μM, monotherapy): 25.66 | Flavonoids screening on endometrial cancer cell organoids, Average ([1]; 100 μM, monotherapy): 29.73

O=c1cc(-c2ccc(O)c(O)c2)oc2cc(O)cc(O)c12 [Luteolin]
Flavonoids screening on endometrial cancer cell organoids, Average ([1]; 10 μM, monotherapy): 90.54 | Flavonoids screening on endometrial cancer cell organoids, Average ([1]; 20 μM, monotherapy): 56.75 | Flavonoids screening on endometrial cancer cell organoids, Average ([1]; 30 μM, monotherapy): 33.96 | Flavonoids screening on endometrial cancer cell organoids, Average ([1]; 40 μM, monotherapy): 1.39 | Flavonoids screening on endometrial cancer cell organoids, Average ([1]; 50 μM, monotherapy): 0.00 | Flavonoids screening on endometrial cancer cell organoids, Average ([1]; 60 μM, monotherapy): 0.00 | Flavonoids screening on endometrial cancer cell organoids, Average ([1]; 80 μM, monotherapy): 0.00 | Flavonoids screening on endometrial cancer cell organoids, Average ([1]; 100 μM, monotherapy): 0.00

O=c1c(O)c(-c2ccc(O)c(O)c2)oc2cc(O)cc(O)c12 [Quercetin]
Flavonoids screening on endometrial cancer cell organoids, Average ([1]; 10 μM, monotherapy): 95.16 | Flavonoids screening on endometrial cancer cell organoids, Average ([1]; 20 μM, monotherapy): 89.43 | Flavonoids screening on endometrial cancer cell organoids, Average ([1]; 30 μM, monotherapy): 85.33 | Flavonoids screening on endometrial cancer cell organoids, Average ([1]; 40 μM, monotherapy): 58.16 | Flavonoids screening on endometrial cancer cell organoids, Average ([1]; 50 μM, monotherapy): 34.67 | Flavonoids screening on endometrial cancer cell organoids, Average ([1]; 60 μM, monotherapy): 25.59 | Flavonoids screening on endometrial cancer cell organoids, Average ([1]; 80 μM, monotherapy): 7.88 | Flavonoids screening on endometrial cancer cell organoids, Average ([1]; 100 μM, monotherapy): 0.00

CCCCCc1cc(O)c2c(c1)OC(C)(C)[C@@H]1CCC(C)=C[C@@H]21 [THC, Δ-9-tetrahydrocannabinol]
onset to reach peak concentration [2]: ~120 min

N.N.O=C([O-])C1(C(=O)[O-])CCC1.[Pt+2] [carboplatin, reference compound]
relative improvement on increasing the chemotherapeutic drug by 5× ([1]; carboplatin alone): about 18% | viability ([1]; carboplatin alone, 50 μg/mL (lowest dose)): about 50% | viability ([1]; carboplatin alone, highest dose): about 32%

O=c1cc(-c2ccccc2)oc2cc(O)cc(O)c12 [chrysin]
cell viability ([1]; 10 μM combined with the IC50 of the BSHE): 3.04% | growth ([1]; 10 μM, monotherapy, FIG. 16): 178.99% | change in viability, combination vs monotherapy ([1]; 10 μM, with IC50 of BSHE): ~175% | cell viability ([1]; 12.5 μM combined with the IC50 of the BSHE): ~0% | growth ([1]; 25 μM, monotherapy, FIG. 16): 188.45% | growth ([1]; 50 μM, monotherapy, FIG. 16): 125.21% | viability ([1]; 100 μM, monotherapy, FIG. 16): 56.74 | efficacy in combination with FSHE [1]: 2nd most effective combination

O=c1c(O)c(-c2cc(O)c(O)c(O)c2)oc2cc(O)cc(O)c12 [myricetin]
reduction from its monotherapy ([1]; 10 μM, with IC50 of BSHE): ~86% | Endometrial Cancer Average ([1]; Table 4, 10 μM): 85.01 | Endometrial Cancer Average ([1]; Table 4, 25 μM): 54.50 | Endometrial Cancer Average ([1]; Table 4, 50 μM): 15.11 | Endometrial Cancer Average ([1]; Table 4, 75 μM): 4.98 | Endometrial Cancer Average ([1]; Table 4, 100 μM): 0.00 | Endometrial Cancer Average ([1]; Table 4, 125 μM): 0.00 | Endometrial Cancer Average ([1]; Table 4, 150 μM): 0.00 | Endometrial Cancer Average ([1]; Table 4, 175 μM): 0.00 | Endometrial Cancer Average ([1]; Table 4, 200 μM): 0.00 | cell viability as a monotherapy ([1]; monotherapy, FIG. 16): significantly reduced cell viability | Ovarian Cancer Average (ovarian cancer organoids; 25 μM): 88.60 | Ovarian Cancer Average (ovarian cancer organoids; 50 μM): 84.68 | Ovarian Cancer Average (ovarian cancer organoids; 75 μM): 78.36 | Ovarian Cancer Average (ovarian cancer organoids; 100 μM): 38.95 | Ovarian Cancer Average (ovarian cancer organoids; 125 μM): 13.49 | Ovarian Cancer Average (ovarian cancer organoids; 150 μM): 2.97 | Ovarian Cancer Average (ovarian cancer organoids; 175 μM): 0.00 | Ovarian Cancer Average (ovarian cancer organoids; 200 μM): 0.00 | Endometriosis Average (endometriosis organoids; 25 μM): 92.10 | Endometriosis Average (endometriosis organoids; 50 μM): 91.37 | Endometriosis Average (endometriosis organoids; 75 μM): 73.66 | Endometriosis Average (endometriosis organoids; 100 μM): 18.33 | Endometriosis Average (endometriosis organoids; 125 μM): 2.85 | Endometriosis Average (endometriosis organoids; 150 μM): 0.00 | Endometriosis Average (endometriosis organoids; 175 μM): 0.00 | Endometriosis Average (endometriosis organoids; 200 μM): 0.00

CC(=O)O[C@H]1C(=O)[C@@]2(C)[C@H]([C@H](OC(=O)c3ccccc3)[C@]3(O)C[C@H](OC(=O)[C@H](O)[C@@H](NC(=O)c4ccccc4)c4ccccc4)C(C)=C1C3(C)C)[C@]1(OC(C)=O)CO[C@@H]1C[C@@H]2O [paclitaxel, reference compound]
relative reduction in viability on increasing the dose by 5× ([1]; paclitaxel alone, 4 nm/ml to 20 nm/ml): about 12%

O=C1c2c(O)cc(O)cc2O[C@H](c2ccc(O)c(O)c2)[C@H]1O [taxifolin]
effect on cells as monotherapy ([1]; 50 μM, monotherapy, FIG. 16): inducing cell proliferation | cell viability compared to the IC50 value [1]: significant reduction cell viability

Cc1c(C)c2c(c(C)c1O)CC[C@@](C)(CCC[C@H](C)CCC[C@H](C)CCCC(C)C)O2 [tocopherol, reference compound]
effect on cells as monotherapy ([1]; 50 μM, monotherapy, FIG. 16): inducing cell proliferation | cell viability compared to the IC50 value [1]: significant reduction cell viability | efficacy in combination with FSHE [1]: made the IC50 FSHE ineffective | impact on cell viability alone in the carrier ([1]; monotherapy in DMSO): virtually no impact on cell viability

C=C1CC/C=C(\C)CC[C@@H]2[C@@H]1CC2(C)C [β-caryophyllene, reference compound]
effect on cells as monotherapy ([1]; 50 μM, monotherapy, FIG. 16): inducing cell proliferation | cell viability compared to the IC50 value [1]: significant reduction cell viability
